“And” between values parts separate entries of the source, which are not always exact repeats. Equal values may be shown once.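 Cells were grown in 96-well plates and exposed to each compound for 48 hours at five concentrations; endpoints were interpolated linearly between bracketing concentrations, or set to the highest concentration if not reached. Here, GI50 denotes the concentration required for 50% inhibition of growth.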 The source made the active and inactive calls. Rule as the data show it: active = GI50 up to about 1.1 µM and inactive = higher. Peptide text beside a SMILES is read from it. * marks the point of attachment. OSu = O=C1CCC(=O)N1O*
Tests used:
Test in all cases: DTP human tumour cell line panel, 48 h
[1] = test system: IGROV-1
[2] = test system: SF-295
[3] = test system: HCT-116
[4] = test system: HOP-62
[5] = test system: UO-31
[6] = test system: A549
[7] = test system: SF-268
[8] = test system: TK-10
[9] = test system: SNB-19
[10] = test system: CAKI-1
[11] = test system: EKVX
[12] = test system: UACC-257
[13] = test system: RXF 393
[14] = test system: LOX IMVI
[15] = test system: NCI-H226
[16] = test system: SK-OV-3
[17] = test system: OVCAR-8
[18] = test system: MCF7
[19] = test system: BT-549
[20] = test system: SF-539
[21] = test system: NCI-H460
[22] = test system: MDA-MB-231
[23] = test system: HT-29
[24] = test system: HCC 2998
[25] = test system: KM12
[26] = test system: 786-0
[27] = test system: UACC-62
[28] = test system: NCI-H23
[29] = test system: MDA-N
[30] = test system: OVCAR-5
[31] = test system: M14
[32] = test system: NCI-H522
[33] = test system: PC-3
[34] = test system: SK-MEL-5
[35] = test system: NCI/ADR-RES
[36] = test system: COLO 205
[37] = test system: ACHN
[38] = test system: OVCAR-3
[39] = test system: DU-145
[40] = test system: HCT-15
[41] = test system: Malme-3M
[42] = test system: Hs-578T
[43] = test system: OVCAR-4
[44] = test system: HL-60
[45] = test system: T47D
[46] = test system: SN12C
[47] = test system: CCRF-CEM
[48] = test system: A498
[49] = test system: RPMI-8226
[50] = test system: SR
[51] = test system: U-251
[52] = test system: SK-MEL-28
[53] = test system: MOLT-4
[54] = test system: SNB-75
[55] = test system: K562
[56] = test system: MDA-MB-435
[57] = test system: SW-620
[58] = test system: HOP-92
[59] = test system: SK-MEL-2

O=P(O)(O)C(N=C(Nc1ccccc1)Nc1ccccc1)P(=O)(O)O was tested, and the GI50 [1] was > 100 µM (inactive), the GI50 [2] was > 100 µM (inactive) and the GI50 [3] was > 100 µM (inactive). For the same compound, the GI50 [4] was > 100 µM (inactive), the GI50 [5] was > 100 µM (inactive) and the GI50 [6] was > 100 µM (inactive). The GI50 [7] was > 100 µM (inactive), the GI50 [8] was > 100 µM (inactive) and the GI50 [9] was > 100 µM (inactive). For the same compound, the GI50 [10] was > 100 µM (inactive), the GI50 [11] was > 100 µM (inactive) and the GI50 [12] was > 100 µM (inactive). The GI50 [13] was > 100 µM (inactive), the GI50 [14] was > 100 µM (inactive) and the GI50 [15] was > 100 µM (inactive). For the same compound, the GI50 [16] was > 100 µM (inactive), the GI50 [17] was > 100 µM (inactive) and the GI50 [18] was > 100 µM (inactive). For the same compound, the GI50 [19] was > 100 µM (inactive), the GI50 [20] was > 100 µM (inactive) and the GI50 [21] was > 100 µM (inactive). For the same compound, the GI50 [22] was > 100 µM (inactive), the GI50 [23] was > 100 µM (inactive) and the GI50 [24] was > 100 µM (inactive). The GI50 [25] was > 100 µM (inactive), the GI50 [26] was > 100 µM (inactive) and the GI50 [27] was > 100 µM (inactive). The GI50 [28] was > 100 µM (inactive), the GI50 [29] was > 100 µM (inactive) and the GI50 [30] was > 100 µM (inactive). For the same compound, the GI50 [31] was > 100 µM (inactive), the GI50 [32] was > 100 µM (inactive) and the GI50 [33] was > 100 µM (inactive). For the same compound, the GI50 [34] was > 100 µM (inactive), the GI50 [35] was > 100 µM (inactive) and the GI50 [36] was > 100 µM (inactive). The GI50 [37] was > 100 µM (inactive), the GI50 [38] was > 100 µM (inactive) and the GI50 [39] was > 100 µM (inactive). For the same compound, the GI50 [40] was > 100 µM, the GI50 [41] was > 100 µM (inactive) and the GI50 [42] was > 100 µM (inactive).
In the case of CC(=O)O[C@H]1CC2C(C3CC[C@H](C(C)CCC(=O)O)[C@]31C)[C@H](OC(C)=O)C[C@@H]1CC3(CC[C@]21C)OOC1(CCC(C)CC1)OO3 (stereo partly specified), the GI50 [1] is reported as 2.01 µM (inactive), the GI50 [3] is reported as 2.16 µM (inactive) and 4.11 µM (inactive) and the GI50 [4] is reported as 3.16 µM (inactive). The GI50 [43] was 2.56 µM (inactive) and 2.32 µM (inactive), the GI50 [44] was 2.97 µM (inactive) and 2.37 µM (inactive) and the GI50 [5] was 2.61 µM (inactive). The GI50 [6] was 1.55 µM (inactive) and 2.82 µM (inactive), the GI50 [45] was 3.07 µM (inactive) and 2.31 µM (inactive) and the GI50 [46] was 2.72 µM (inactive) and 4.18 µM (inactive). The GI50 [47] was 1.67 µM (inactive) and 2.03 µM (inactive), the GI50 [48] was 15 µM (inactive) and 13 µM (inactive) and the GI50 [49] was 1.91 µM (inactive) and 2.05 µM (inactive). For the same compound, the GI50 [11] was 2.08 µM (inactive), the GI50 [12] was 6.92 µM (inactive) and 11.7 µM (inactive) and the GI50 [13] was 7.82 µM (inactive) and 12.9 µM (inactive). The GI50 [14] was 2.15 µM (inactive) and 3.27 µM (inactive), the GI50 [17] was 1.98 µM (inactive) and 2.85 µM (inactive) and the GI50 [18] was 2.96 µM (inactive) and 4.86 µM (inactive). For the same compound, the GI50 [50] was 1.55 µM (inactive), the GI50 [19] was 3.69 µM (inactive) and 2.74 µM (inactive) and the GI50 [51] was 1.76 µM (inactive) and 3.35 µM (inactive). The GI50 [21] was 2.33 µM (inactive) and 3.53 µM (inactive), the GI50 [23] was 2.11 µM (inactive) and 1.81 µM (inactive) and the GI50 [28] was 2.28 µM (inactive) and 4.31 µM (inactive). For the same compound, the GI50 [29] was 3.77 µM (inactive) and 5.71 µM (inactive), the GI50 [52] was 2.06 µM (inactive) and 1.66 µM (inactive) and the GI50 [53] was 2.2 µM (inactive) and 1.51 µM (inactive). The GI50 [31] was 3.49 µM (inactive) and 6.67 µM (inactive), the GI50 [32] was 2.98 µM (inactive) and 1.61 µM (inactive) and the GI50 [33] was 5.15 µM (inactive) and 3.17 µM (inactive). For the same compound, the GI50 [36] was 2.53 µM (inactive), the GI50 [54] was 1.6 µM (inactive) and the GI50 [37] was 2.59 µM (inactive) and 4.31 µM (inactive). For the same compound, the GI50 [39] was 3.32 µM (inactive) and 4.98 µM (inactive), the GI50 [40] was 2.37 µM and 2.96 µM and the GI50 [55] was 3.13 µM (inactive) and 3.9 µM (inactive). For the same compound, the GI50 [42] was 3.4 µM (inactive) and 1.76 µM (inactive) and the GI50 [56] was 2.62 µM (inactive) and 4.74 µM (inactive).
For NCCCCC(NC(=O)C(N)Cc1ccc(O)cc1)C(=O)NC(Cc1ccc(O)cc1)C(=O)NC(CCCCN)C(=O)ON1C(=O)CCC1=O (stereo unspecified) (H-YKYK-OSu; configuration not given here), the GI50 [1] was > 100 µM (inactive), the GI50 [3] was > 100 µM (inactive) and the GI50 [4] was > 100 µM (inactive). The GI50 [44] was > 100 µM (inactive), the GI50 [5] was > 100 µM (inactive) and the GI50 [6] was > 100 µM (inactive). The GI50 [45] was > 100 µM (inactive), the GI50 [8] was > 100 µM (inactive) and the GI50 [9] was > 100 µM (inactive). For the same compound, the GI50 [46] was > 100 µM (inactive), the GI50 [48] was > 100 µM (inactive) and the GI50 [49] was > 100 µM (inactive). The GI50 [11] was > 100 µM (inactive), the GI50 [57] was > 100 µM (inactive) and the GI50 [12] was > 100 µM (inactive). For the same compound, the GI50 [13] was > 100 µM (inactive), the GI50 [15] was > 100 µM (inactive) and the GI50 [17] was > 100 µM (inactive). The GI50 [18] was > 100 µM (inactive), the GI50 [50] was > 100 µM (inactive) and the GI50 [19] was > 100 µM (inactive). The GI50 [51] was > 100 µM (inactive), the GI50 [21] was > 100 µM (inactive) and the GI50 [22] was > 100 µM (inactive). For the same compound, the GI50 [23] was > 100 µM (inactive), the GI50 [24] was > 100 µM (inactive) and the GI50 [58] was > 100 µM (inactive). For the same compound, the GI50 [25] was > 100 µM (inactive), the GI50 [26] was > 100 µM (inactive) and the GI50 [27] was > 100 µM (inactive). The GI50 [28] was > 100 µM (inactive), the GI50 [29] was > 100 µM (inactive) and the GI50 [52] was > 100 µM (inactive). The GI50 [53] was > 100 µM (inactive), the GI50 [30] was > 100 µM (inactive) and the GI50 [31] was > 100 µM (inactive). For the same compound, the GI50 [33] was > 100 µM (inactive), the GI50 [34] was > 100 µM (inactive) and the GI50 [36] was > 100 µM (inactive). For the same compound, the GI50 [54] was > 100 µM (inactive), the GI50 [59] was > 100 µM (inactive) and the GI50 [37] was > 100 µM (inactive). The GI50 [40] was > 100 µM, the GI50 [41] was > 100 µM (inactive) and the GI50 [55] was > 100 µM (inactive). For the same compound, the GI50 [42] was > 100 µM (inactive).
For CCN(CC)CCNc1n[n+]([O-])c2cc([N+](=O)[O-])ccc2[n+]1[O-], the GI50 [1] was 0.191 µM (active), the GI50 [3] was 0.483 µM (active) and the GI50 [4] was 0.661 µM (active). The GI50 [43] was 1.31 µM (inactive), the GI50 [5] was 2.94 µM (inactive) and the GI50 [6] was 0.752 µM (active). For the same compound, the GI50 [7] was 1.11 µM (active), the GI50 [9] was 1.4 µM (inactive) and the GI50 [48] was 1.79 µM (inactive). The GI50 [10] was 0.337 µM (active), the GI50 [11] was 1.98 µM (inactive) and the GI50 [13] was 1.52 µM (inactive). The GI50 [14] was 0.601 µM (active), the GI50 [15] was 1.7 µM (inactive) and the GI50 [16] was 1.05 µM (active). For the same compound, the GI50 [17] was 0.538 µM (active), the GI50 [19] was 2.37 µM (inactive) and the GI50 [51] was 1.08 µM (active). For the same compound, the GI50 [23] was 0.374 µM (active), the GI50 [25] was 0.948 µM (active) and the GI50 [29] was 0.863 µM (active). The GI50 [52] was 6.32 µM (inactive), the GI50 [30] was 1.92 µM (inactive) and the GI50 [31] was 0.587 µM (active). The GI50 [34] was 0.714 µM (active), the GI50 [35] was 1.27 µM (inactive) and the GI50 [36] was 0.605 µM (active). For the same compound, the GI50 [38] was 0.893 µM (active), the GI50 [42] was 2.59 µM (inactive) and the GI50 [56] was 1.38 µM (inactive).
